Legend:
DNA polymerase [1] = assay: Screen of PEMs for enhancement of XNTP polymerization (primer extension, gel electrophoresis); format: biochemical; conditions: FIG. 4 gel; 45 mer template; without PEM additive up to only around 14 XNTPs
Procedure: A representative primer extension reaction may include the following reagents: 2 pmol primer, 2.2 pmol 45 mer oligonucleotide template, 50 pmol of each XNTP (XATP, XCTP, XGTP, and XTTP), 50 mM Tris HCl, pH 6.79, 200 mM NaCl, 20% PEG, 5% NMS, 0.5 nmol polyphosphate 60.19, 0.3 mM MnCl2, and 0.6 μg of purified recombinant DNA polymerase protein. Reactions may be run for 1 hr at 23° C. Reaction products (i.e., constrained Xpandomers) are treated to cleave the phosphoramidate bonds, thereby generating linearized Xpandomers. Reaction products may be analyzed using gel electrophoresis on 4-12% acrylamide gels to resolve and visualize Xpandomer products of different lengths. For the PEM screen described above, PEMs were typically tested in the micro to millimolar range.
Again, this PEM activity is specific for compound 2, as other unrelated aromatic compounds had no effect (lanes 2-7).

[2] = target: T1, C4552 (variant of DPO4 DNA polymerase) (Saccharolobus solfataricus, UniProt Q97W02, A155G/A42V/D156R/D292Y/D294N/E291S/E324K/E325K/E327K/E79L/G187P/G299W/I153V/I189F/I248T/I295S/K152A/K317Q/K321Q/K56Y/K78D/L293W/M76W/N188Y/P184Q/Q82W/Q83G/R300S/S297Y/S86E/T290K/T301W/V289W/V296Q); assay: XNTP polymerization reactions on longer templates (88, 127, 227, 277 nucleotides); format: biochemical, Sulfolobus solfataricus; conditions: 1 mM compound; templates of 88, 127, 227 and 277 nucleotides; 3 or 4 nmol PP-60.20; 1-2 hr at 23° C.; FIG. 8
T1 construct: made in house
T1 sequence (Q97W02 other isoform, or with tags, fused parts or gaps with the stated changes): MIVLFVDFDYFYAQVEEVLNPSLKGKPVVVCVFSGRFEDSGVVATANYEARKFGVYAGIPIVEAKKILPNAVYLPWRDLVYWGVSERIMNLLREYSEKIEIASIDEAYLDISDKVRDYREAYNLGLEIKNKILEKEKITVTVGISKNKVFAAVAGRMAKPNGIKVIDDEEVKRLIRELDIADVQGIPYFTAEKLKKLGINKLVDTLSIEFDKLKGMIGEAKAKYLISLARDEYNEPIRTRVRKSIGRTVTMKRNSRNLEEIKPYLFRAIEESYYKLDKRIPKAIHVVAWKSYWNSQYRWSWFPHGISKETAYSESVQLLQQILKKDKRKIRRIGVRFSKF
Procedure: Following the success of accurately replicating templates of up to 80 nucleotides in length into Xpandomers, XNTP polymerization reactions were conducted using four longer templates, consisting of 88, 127, 227, and 277 nucleotides in length. A variant of DPO4 DNA polymerase, referred to as C4552 (SEQ ID NO:1), was used in these polymerization reactions and reaction conditions were optimized for C4552 activity in the presence of PEM compound 1. Other suitable DPO4 polymerase variants include, but are not limited to, those of SEQ ID NO:2, SEQ ID NO:3, SEQ ID NO:4, and SEQ ID NO:5. In addition to 1 mM compound 1, reaction additives included 1 mM urea and 2.75 μg single-strand binding protein (Eco SSB). Extension reactions were carried out with 0.85 pmol template, 0.5 pmol oligonucleotide primer, and 1 nmol each XNTP in a final volume of 10 μL. Reactions were run in buffer composed of 50 mM TrisCl, pH 8.84, 200 mM NH4OAc, and 20% PEG8K supplemented with 5% NMS, polyphosphate PP-60.20 in amounts of 3 or 4 nmol, and 2 mM MnCl2. 1.2 μg purified recombinant DNA polymerase protein was used in each extension reaction and reactions were run for 1-2 hr at 23° C. […] Lanes 1-5 and 6-10 represent identical extension reactions with the exception of the amount of PP-60.20 additive, which was 3 nmol in lanes 1-5 and 4 nmol in lanes 6-10.

C4552 DNA polymerase = target: T2, C4552 DNA polymerase (Saccharolobus solfataricus, UniProt Q97W02, A155G/A42V/D156R/D292Y/D294N/E291S/E324K/E325K/E327K/E79L/G187P/G299W/I153V/I189F/I248T/I295S/K152A/K317Q/K321Q/K56Y/K78D/L293W/M76W/N188Y/P184Q/Q82W/Q83G/R300S/S297Y/S86E/T290K/T301W/V289W/V296Q); assay: Primer extension assays using three 100mer templates derived from HIV1, 2 and 3 genomes; format: biochemical, Sulfolobus solfataricus; conditions: 0.5 mM PEM; HIV1, HIV2, HIV3 100mer templates; 30 minutes at 23° C.; FIG. 9
T2 construct: made in house
Procedure: PEM activity of compounds 9-11 was tested in primer extension assays using three 100mer templates, derived from the HIV1, 2, and 3 genomes. Primer extension reactions included the following reagents: 75 mM TrisCl, pH 8.44, 175 mM NH4OAc, 20% PEG8K, 5% NMS, 0.8 nmol PP-60.20, 0.6 mM MnCl2, 2.3 μg Tth single-strand binding protein (SSB), 0.5 M or 1 M urea, 200 pmol each XNTP, 1.1 pmol template, 1 pmol oligonucleotide primer, 1.2 μg purified recombinant C4552 DNA polymerase, and 0.5 mM PEM. 10 μL primer extension reactions were run for 30 minutes at 23° C. and reaction products were analyzed by gel electrophoresis.

DNA polymerase [3] = assay: Sequencing by Expansion (SBX) of primer extension products, nanopore sequence reads aligned to template; format: biochemical
Procedure: To investigate the accuracy of PEM-dependent enhancement of XNTP polymerization, primer extension products were sequenced using the SBX protocol. Briefly, the constrained Xpandomer products of XNTP polymerization are cleaved to generate linearized Xpandomers. This is accomplished by first quenching the extension reaction with a solution containing 100 mM EDTA, 2 mM THPTA, and 2% Tween-20. Then the sample is subjected to amine modification with a solution of 1 M NaHCO3 and 1 M succinic anhydride in DMF. Cleavage of the phosphoramidate bonds is carried out with 37% HCl and linearized Xpandomers are purified with QIAquick columns (QIAGEN, Inc.).
For sequencing, protein nanopores are prepared by inserting α-hemolysin into a DPhPE/hexadecane bilayer member in buffer B1, containing 2 M NH4Cl and 100 mM HEPES, pH 7.4. The cis well is perfused with buffer B2, containing 0.4 M NH4Cl, 0.6 M GuCl, and 100 mM HEPES, pH 7.4. The Xpandomer sample is heated to 70° C. for 2 minutes, cooled completely, then a 2 μL sample is added to the cis well. A voltage pulse of 90 mV/390 mV/10 μs is then applied and data is acquired via Labview acquisition software.
Sequence data is analyzed by histogram display of the population of sequence reads from a single SBX reaction. […] Representative histograms of SBX sequencing of a 45mer template are presented in FIG. 6A (no additive control) and FIG. 6B (SBX in the presence of PEM compound 1).

[4] = target: T3, C4760 DNA polymerase (a variant of DPO4) (Saccharolobus solfataricus, UniProt Q97W02, A155G/A42V/D156R/D292Y/D294N/E291S/E324K/E325K/E327K/E63R/E79L/G187P/G299W/I153V/I189F/I248T/I295S/K152A/K317Q/K321Q/K56Y/K78D/L293W/M76W/N188Y/P184Q/Q82W/Q83G/R300S/S297Y/S86E/T290K/T301W/V289W/V296Q); assay: Primer extension assays using a 411mer amplicon template; format: biochemical, Sulfolobus solfataricus; conditions: comparator compound 14 (lane 1)
T3 construct: made in house
T3 sequence (Q97W02 other isoform, or with tags, fused parts or gaps with the stated changes): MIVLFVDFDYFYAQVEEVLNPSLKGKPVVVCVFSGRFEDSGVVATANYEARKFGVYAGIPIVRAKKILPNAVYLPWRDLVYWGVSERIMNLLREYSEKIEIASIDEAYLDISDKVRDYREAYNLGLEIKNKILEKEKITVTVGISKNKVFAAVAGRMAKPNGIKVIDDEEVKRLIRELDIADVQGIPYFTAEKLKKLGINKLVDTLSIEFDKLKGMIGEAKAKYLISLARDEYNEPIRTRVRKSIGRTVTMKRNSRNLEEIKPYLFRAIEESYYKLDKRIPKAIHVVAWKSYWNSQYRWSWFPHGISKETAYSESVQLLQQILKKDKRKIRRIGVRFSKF
Procedure: PEM activity of compound 15 was tested in primer extension assays using a 411mer amplicon template. Primer extension reactions included the following reagents: 50 mM TrisCl, 200 mM NH4OAc, 20% PEG8K, 5% NMS, 3 nmol PP-60.20, 2 mM MnCl2, 2 μg Kod single-strand binding protein (SSB), 1 M urea, 250 pmol each XNTP, 1 pmol template, 1 pmol oligonucleotide primer, 1.2 μg purified recombinant C4760 DNA polymerase (a variant of DPO4, see SEQ ID NO:2), and 2 (lane 2) or 3 (lane 3) mM PEM. 10 μL primer extension reactions were run for 20 minutes at 37° C. and reaction products were analyzed by gel electrophoresis. A representative gel showing primer extension products is presented in FIG. 12 (the position of a 277mer is indicated by the arrow). […] Remarkably, the polymerase is completely dependent upon the addition of PEM to the reaction in order to be capable of synthesizing these lengthy Xpandomer products. Even longer extension products may be obtained by optimizing various reaction parameters, e.g., extension time and/or concentrations of various additives.
PEM activity of compound 19, was tested in primer extension assays using the 411 mer amplicon template. […] 10 μL primer extension reactions were run for 30 minutes at 37° C. and reaction products were analyzed by gel electrophoresis. […]

O=C(O)c1ccc(-n2cc(-c3cccc(-c4cn(-c5ccc(C(=O)O)c(O)c5)nn4)n3)nn2)cc1O [Compound 1, 4,4′-(pyridine-2,6-diylbis(1H-1,2,3-triazole-4,1-diyl))bis(2-hydroxybenzoic acid)]
DNA polymerase-mediated primer extension with XNTPs (length of extension products) (DNA polymerase [1]): enables the polymerase to synthesize considerably longer extension products
polymerization of XNTPs into Xpandomer copies of longer templates [2]: generate complete Xpandomer copies of each longer template
PEM activity: polymerization of XNTPs into Xpandomer copies of 100 mer templates (C4552 DNA polymerase): enables polymerization of XNTPs into full length Xpandomer copies of the three different 100 mer templates
accuracy of SBX sequence reads (DNA polymerase [3]; 45mer template, FIG. 6B, without additive reads not accurate past around base 18): increased the accuracy of the sequence reads across the entire length of the 45 mer template
accuracy of SBX sequence reads (DNA polymerase [3]; 60 mer template, FIG. 7A): enabled accurate sequence reads completely to the end of each of these longer templates
accuracy of SBX sequence reads (DNA polymerase [3]; 80 mer template, FIG. 7B): enabled accurate sequence reads completely to the end of each of these longer templates

CCOC(=O)c1cc(-c2cn(-c3ccc(O)c(C(=O)O)c3)nn2)nc(-c2cn(-c3ccc(O)c(C(=O)O)c3)nn2)c1 [Compound 15, 5,5′-((4-(ethoxycarbonyl)pyridine-2,6-diyl)bis(1H-1,2,3-triazole-4,1-diyl))bis(2-hydroxybenzoic acid)]
PEM activity: polymerization of XNTPs into Xpandomer copies of the 411 mer template ([4]; 2 or 3 mM PEM, 1 pmol template, 20 minutes at 37° C., FIG. 12): enables polymerization of XNTPs into lengthy Xpandomer copies of the 411 mer template in a manner comparable to that of compound 14

NC(=O)c1cc(-c2cn(-c3ccc(C(=O)O)c(O)c3)nn2)nc(-c2cn(-c3ccc(C(=O)O)c(O)c3)nn2)c1 [Compound 19, 4,4′-((4-carbamoylpyridine-2,6-diyl)bis(1H-1,2,3-triazole-4,1-diyl))bis(2-hydroxybenzoic acid)]
PEM activity: polymerization of XNTPs into Xpandomer copies of the 411 mer template ([4]; 0.5, 1, or 1.5 mM PEM, 0.5 pmol template, 30 minutes at 37° C., FIG. 14): enables polymerization of XNTPs into lengthy Xpandomer copies of the 411 mer template, albeit in a manner less efficient than that of compound 14

From patent publication US11970731B2, “Enhancement of nucleic acid polymerization by aromatic compounds” (priority 2018, dated 2024)
